Measurements: ChEMBL document CHEMBL1201862, “PubChem BioAssay data set” (2004)
“And” between values parts separate entries of the source, which are not always exact repeats. Equal values may be shown once. Values belong to the compound of their own block, whether it stands above or below them. The source made the active and inactive calls.

What was measured:
[1] = molecular target: T1, Glycogen synthase kinase-3 beta (Homo sapiens, UniProt P49841); test: GSK3beta kinase inhibitors, dose response, biochemical, microfluidics, dry powder samples, set 2 (AID 623989); type: functional
[2] = molecular target: T2, Glycogen synthase kinase-3 alpha (Homo sapiens, UniProt P49840); test: human GSK3 alpha kinase inhibition, dose response, selectivity assay for GSK3beta inhibitor project, biochemical, microfluidics, dry powder samples, set 2 (AID 623978); type: functional
[3] = molecular target: T3, Cyclin-dependent kinase 5/CDK5 activator 1 (Homo sapiens, UniProt Q00535); test: CDK5-p25 kinase inhibitors, specificity check, dose response, selectivity assay for GSK-3 alpha inhibitor project, biochemical, microfluidic mobility shift, dry powder (AID 588430)
[4] = molecular target: T1, Glycogen synthase kinase-3 beta; test: Inhibition of Human GSK-3 beta Activity Measured in Biochemical System Using Microfluidics - 2063-05_Inhibitor_Dose_DryPowder_Activity_Set2. [Related pubchem assays (depositor defined):AID2709]
[5] = molecular target: T3, Cyclin-dependent kinase 5/CDK5 activator 1; test: CDK5-p25 kinase inhibition, dose response, selectivity assay for GSK3beta inhibitor project, biochemical, microfluidic mobility shift, dry powder, set 2 (AID 623979); type: functional
[6] = molecular target: T2, Glycogen synthase kinase-3 alpha; test: Inhibition of Human GSK-3 alpha Activity Measured in Biochemical System Using Microfluidics - 2063-06_Inhibitor_Dose_DryPowder_Activity_Set2. [Related pubchem assays (depositor defined):AID2709]
[7] = molecular target: T4, High affinity choline transporter 1 (Homo sapiens, UniProt Q9GZV3); test: CHT inhibitors, dose response, cell-based, 10-point CRC, membrane potential dye (AID 588401); type: functional;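 also: membrane potential dye fluorescence of choline-evoked depolarization via CHT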
T4 sequence (Q9GZV3 whole entry): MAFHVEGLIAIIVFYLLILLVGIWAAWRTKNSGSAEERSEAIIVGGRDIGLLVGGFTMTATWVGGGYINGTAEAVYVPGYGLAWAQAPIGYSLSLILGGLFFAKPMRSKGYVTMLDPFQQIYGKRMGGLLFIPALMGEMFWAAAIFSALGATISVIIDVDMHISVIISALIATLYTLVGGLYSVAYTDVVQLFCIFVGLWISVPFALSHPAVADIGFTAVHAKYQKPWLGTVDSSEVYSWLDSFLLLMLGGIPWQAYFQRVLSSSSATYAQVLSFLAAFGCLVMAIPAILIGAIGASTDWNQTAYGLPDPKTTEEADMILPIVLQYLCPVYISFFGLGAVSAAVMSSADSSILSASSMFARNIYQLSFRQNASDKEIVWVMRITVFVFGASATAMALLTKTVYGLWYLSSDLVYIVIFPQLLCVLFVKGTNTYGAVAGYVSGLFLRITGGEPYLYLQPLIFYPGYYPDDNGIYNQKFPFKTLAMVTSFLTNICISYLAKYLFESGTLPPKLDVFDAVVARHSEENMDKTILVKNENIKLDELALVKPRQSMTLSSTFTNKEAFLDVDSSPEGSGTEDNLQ

[8] = molecular target: T4, High affinity choline transporter 1; test: inhibitors of CHT choline uptake, dose response, cell-based, 3H-choline uptake, CHT LV-AA trafficking mutant, CRC (AID 602208); type: functional
[9] = molecular target: T4, High affinity choline transporter 1; test: CHT inhibitors, dose response, cell-based, 5-point CRC, membrane potential dye (AID 504840); type: functional
[10] = molecular target: Aurora kinase B (Homo sapiens, UniProt Q96GD4); type: functional
[11] = molecular target: Dual specificity protein kinase CLK4 (Homo sapiens, UniProt Q9HAZ1); type: functional
[12] = molecular target: Mitogen-activated protein kinase kinase kinase kinase 5 (Homo sapiens, UniProt Q9Y4K4); type: functional;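 also: measured as one member of a kinome-spanning kinase panel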
[13] = molecular target: T5, Receptor-type tyrosine-protein kinase FLT3 (Homo sapiens, UniProt P36888); type: functional;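 also: FLT3 was tested as one member of a kinome-wide kinase panel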
T5 sequence (P36888 whole entry): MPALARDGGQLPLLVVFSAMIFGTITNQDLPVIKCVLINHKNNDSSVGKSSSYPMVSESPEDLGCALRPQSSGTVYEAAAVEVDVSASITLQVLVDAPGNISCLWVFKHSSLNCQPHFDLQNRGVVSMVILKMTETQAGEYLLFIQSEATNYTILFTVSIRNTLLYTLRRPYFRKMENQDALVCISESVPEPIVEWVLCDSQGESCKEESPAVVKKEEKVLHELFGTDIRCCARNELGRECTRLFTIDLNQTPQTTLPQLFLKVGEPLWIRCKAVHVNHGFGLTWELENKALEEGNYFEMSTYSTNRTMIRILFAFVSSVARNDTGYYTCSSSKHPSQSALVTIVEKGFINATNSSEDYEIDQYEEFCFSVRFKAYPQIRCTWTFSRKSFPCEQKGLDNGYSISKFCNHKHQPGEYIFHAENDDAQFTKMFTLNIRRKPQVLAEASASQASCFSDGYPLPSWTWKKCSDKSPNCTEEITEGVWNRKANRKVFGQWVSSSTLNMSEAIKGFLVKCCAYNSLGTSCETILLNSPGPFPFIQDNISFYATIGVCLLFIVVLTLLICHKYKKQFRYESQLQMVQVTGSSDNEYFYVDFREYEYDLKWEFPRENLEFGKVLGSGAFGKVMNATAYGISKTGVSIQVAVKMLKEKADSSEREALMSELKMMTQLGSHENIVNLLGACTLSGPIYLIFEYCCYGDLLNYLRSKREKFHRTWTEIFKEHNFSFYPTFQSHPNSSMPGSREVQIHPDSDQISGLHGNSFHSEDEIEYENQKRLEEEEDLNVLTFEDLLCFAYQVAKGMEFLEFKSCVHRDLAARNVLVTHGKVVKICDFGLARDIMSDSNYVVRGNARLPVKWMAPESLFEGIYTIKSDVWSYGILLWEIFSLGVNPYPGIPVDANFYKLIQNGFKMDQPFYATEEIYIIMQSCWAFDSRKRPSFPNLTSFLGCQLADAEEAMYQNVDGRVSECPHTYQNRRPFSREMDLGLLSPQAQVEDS

[14] = molecular target: Casein kinase I isoform delta (Homo sapiens, UniProt P48730); type: functional;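 also: measured as one member (CSNK1D) of a kinome panel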
[15] = molecular target: Mitogen-activated protein kinase kinase kinase kinase 4 (Homo sapiens, UniProt O95819); type: functional
[16] = molecular target: Mitogen-activated protein kinase kinase kinase 20 (Homo sapiens, UniProt Q9NYL2); type: functional
Mitogen-activated protein kinase kinase kinase 20, sequence (Q9NYL2 whole entry): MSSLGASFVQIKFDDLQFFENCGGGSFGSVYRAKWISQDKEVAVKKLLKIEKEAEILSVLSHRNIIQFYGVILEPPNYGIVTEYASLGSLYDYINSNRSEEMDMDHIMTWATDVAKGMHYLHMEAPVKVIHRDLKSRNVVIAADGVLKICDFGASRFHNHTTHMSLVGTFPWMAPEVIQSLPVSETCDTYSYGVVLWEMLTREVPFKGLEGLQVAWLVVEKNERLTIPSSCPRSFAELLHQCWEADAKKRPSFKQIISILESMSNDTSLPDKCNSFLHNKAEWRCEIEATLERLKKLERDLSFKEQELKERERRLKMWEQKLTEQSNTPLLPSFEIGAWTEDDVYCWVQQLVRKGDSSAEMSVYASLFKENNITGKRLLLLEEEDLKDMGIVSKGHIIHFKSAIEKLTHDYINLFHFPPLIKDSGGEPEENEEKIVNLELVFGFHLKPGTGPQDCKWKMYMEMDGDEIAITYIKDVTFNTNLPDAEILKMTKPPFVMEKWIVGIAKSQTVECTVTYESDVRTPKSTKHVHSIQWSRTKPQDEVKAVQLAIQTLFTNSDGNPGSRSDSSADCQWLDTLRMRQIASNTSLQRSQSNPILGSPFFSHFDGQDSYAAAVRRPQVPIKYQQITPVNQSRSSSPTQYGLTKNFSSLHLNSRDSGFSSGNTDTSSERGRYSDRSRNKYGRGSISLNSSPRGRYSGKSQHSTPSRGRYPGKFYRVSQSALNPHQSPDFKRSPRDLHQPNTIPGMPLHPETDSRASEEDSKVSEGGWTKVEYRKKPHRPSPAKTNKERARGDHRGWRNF

T1 sequence (P49841 whole entry): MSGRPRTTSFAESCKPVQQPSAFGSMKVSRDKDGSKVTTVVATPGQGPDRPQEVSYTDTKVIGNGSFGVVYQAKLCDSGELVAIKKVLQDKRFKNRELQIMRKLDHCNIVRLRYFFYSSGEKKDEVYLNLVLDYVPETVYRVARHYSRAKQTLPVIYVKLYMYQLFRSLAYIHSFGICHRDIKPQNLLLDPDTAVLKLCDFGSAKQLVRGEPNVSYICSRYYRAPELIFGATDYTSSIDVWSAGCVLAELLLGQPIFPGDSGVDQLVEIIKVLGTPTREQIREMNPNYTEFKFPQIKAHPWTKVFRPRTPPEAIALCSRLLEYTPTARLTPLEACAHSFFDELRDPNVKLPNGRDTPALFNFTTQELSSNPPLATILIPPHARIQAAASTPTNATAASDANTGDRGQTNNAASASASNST
T2 sequence (P49840 whole entry): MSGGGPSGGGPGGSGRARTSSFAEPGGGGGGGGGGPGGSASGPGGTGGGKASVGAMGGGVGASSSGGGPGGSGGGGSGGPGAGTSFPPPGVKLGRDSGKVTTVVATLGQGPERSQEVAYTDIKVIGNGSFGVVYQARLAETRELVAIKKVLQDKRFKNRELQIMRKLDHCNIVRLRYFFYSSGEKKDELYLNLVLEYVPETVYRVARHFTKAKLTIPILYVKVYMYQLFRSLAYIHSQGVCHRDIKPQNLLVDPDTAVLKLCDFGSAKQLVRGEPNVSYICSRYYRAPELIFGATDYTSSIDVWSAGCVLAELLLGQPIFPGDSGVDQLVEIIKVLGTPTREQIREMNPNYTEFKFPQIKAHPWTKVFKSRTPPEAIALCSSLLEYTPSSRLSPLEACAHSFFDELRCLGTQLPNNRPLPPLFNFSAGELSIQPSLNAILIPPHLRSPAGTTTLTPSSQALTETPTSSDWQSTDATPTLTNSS
T3 sequence (Q00535 whole entry): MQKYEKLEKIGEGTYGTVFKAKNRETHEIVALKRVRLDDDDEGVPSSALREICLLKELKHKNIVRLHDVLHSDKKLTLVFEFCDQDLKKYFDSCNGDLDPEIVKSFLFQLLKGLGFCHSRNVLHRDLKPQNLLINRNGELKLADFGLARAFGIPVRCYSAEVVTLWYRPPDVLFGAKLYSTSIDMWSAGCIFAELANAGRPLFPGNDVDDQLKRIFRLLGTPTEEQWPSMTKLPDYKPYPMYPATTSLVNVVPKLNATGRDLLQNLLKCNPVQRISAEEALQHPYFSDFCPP
T3 sequence (Q15078 whole entry, further chain): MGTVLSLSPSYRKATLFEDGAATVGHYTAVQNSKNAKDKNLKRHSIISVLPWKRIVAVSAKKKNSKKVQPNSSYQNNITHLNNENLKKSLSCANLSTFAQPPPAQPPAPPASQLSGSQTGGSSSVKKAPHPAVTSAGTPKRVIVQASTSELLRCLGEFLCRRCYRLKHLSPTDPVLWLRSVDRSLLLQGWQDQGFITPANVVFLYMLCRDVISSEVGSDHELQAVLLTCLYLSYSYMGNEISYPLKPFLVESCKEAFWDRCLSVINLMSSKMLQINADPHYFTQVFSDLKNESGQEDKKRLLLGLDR
Casein kinase I isoform delta, sequence (P48730 whole entry, canonical isoform): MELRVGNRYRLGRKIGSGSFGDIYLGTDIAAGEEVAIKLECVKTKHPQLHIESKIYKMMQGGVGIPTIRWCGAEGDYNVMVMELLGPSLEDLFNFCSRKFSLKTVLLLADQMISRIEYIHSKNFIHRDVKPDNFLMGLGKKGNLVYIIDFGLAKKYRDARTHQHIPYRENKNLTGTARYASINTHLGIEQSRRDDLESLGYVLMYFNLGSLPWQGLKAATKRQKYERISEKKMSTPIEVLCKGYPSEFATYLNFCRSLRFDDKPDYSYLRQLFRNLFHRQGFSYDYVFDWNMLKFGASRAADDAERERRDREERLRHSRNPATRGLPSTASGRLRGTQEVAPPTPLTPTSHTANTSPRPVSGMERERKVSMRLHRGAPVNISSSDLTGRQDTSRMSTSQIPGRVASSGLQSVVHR
Mitogen-activated protein kinase kinase kinase kinase 4, sequence (O95819 whole entry): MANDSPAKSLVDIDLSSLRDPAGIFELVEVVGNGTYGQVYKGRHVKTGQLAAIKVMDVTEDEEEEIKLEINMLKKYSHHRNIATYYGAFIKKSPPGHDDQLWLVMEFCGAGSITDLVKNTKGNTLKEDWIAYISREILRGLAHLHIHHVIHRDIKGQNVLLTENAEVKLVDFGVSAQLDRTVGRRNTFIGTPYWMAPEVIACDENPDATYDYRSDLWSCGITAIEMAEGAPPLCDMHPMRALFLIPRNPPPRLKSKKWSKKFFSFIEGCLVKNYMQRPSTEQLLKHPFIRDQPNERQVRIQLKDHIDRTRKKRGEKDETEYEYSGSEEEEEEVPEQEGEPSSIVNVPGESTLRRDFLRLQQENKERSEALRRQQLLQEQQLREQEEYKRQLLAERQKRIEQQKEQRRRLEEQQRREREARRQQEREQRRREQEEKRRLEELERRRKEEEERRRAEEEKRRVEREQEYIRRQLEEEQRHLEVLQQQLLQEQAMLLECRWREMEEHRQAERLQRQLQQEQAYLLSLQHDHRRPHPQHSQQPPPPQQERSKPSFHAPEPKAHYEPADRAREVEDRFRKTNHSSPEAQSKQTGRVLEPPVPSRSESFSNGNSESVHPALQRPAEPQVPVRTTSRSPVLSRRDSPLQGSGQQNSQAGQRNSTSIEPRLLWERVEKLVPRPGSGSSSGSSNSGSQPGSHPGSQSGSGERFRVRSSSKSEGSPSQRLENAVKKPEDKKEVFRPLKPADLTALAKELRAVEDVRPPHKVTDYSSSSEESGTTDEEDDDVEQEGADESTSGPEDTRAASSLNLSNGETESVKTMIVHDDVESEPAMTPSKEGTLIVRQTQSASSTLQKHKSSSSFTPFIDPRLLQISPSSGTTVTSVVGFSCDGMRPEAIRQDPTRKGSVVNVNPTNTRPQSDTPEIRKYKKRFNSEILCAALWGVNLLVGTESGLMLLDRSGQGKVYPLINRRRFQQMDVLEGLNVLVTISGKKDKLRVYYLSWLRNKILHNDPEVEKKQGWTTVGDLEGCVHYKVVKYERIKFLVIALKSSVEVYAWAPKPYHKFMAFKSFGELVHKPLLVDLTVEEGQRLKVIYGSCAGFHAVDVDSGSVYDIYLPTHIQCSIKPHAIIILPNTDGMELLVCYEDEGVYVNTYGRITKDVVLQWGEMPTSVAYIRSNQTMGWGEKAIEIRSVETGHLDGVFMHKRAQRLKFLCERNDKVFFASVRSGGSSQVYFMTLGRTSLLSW
Dual specificity protein kinase CLK4, sequence (Q9HAZ1 whole entry): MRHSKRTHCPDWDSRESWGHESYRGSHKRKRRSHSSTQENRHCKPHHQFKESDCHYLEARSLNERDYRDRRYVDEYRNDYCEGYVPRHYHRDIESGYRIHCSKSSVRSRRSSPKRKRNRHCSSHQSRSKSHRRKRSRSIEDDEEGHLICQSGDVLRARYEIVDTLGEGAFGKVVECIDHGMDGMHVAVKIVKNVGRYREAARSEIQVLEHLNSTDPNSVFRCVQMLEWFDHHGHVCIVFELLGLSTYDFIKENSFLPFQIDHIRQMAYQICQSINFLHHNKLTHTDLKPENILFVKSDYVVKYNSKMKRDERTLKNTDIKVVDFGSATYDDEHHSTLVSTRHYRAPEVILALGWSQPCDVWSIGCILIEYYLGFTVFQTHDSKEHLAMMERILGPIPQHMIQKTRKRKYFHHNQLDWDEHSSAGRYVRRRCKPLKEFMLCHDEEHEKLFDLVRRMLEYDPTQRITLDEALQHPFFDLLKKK
Aurora kinase B, sequence (Q96GD4 whole entry): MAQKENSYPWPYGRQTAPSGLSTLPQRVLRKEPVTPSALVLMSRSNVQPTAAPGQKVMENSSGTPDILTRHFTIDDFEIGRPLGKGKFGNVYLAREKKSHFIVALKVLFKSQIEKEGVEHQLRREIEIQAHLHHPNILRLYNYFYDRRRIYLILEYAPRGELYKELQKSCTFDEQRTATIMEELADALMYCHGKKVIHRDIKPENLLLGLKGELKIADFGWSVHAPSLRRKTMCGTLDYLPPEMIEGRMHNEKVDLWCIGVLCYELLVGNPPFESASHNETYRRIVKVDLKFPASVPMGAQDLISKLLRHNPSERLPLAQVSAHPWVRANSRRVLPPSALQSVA

- AC50 [1]: 11.3 nM (active) and < 30 nM (active)
- AC50 [2]: 121 nM (active) and 281 nM (active)
- AC50 [3]: < 10 nM (active) and < 16 nM (active)
- AC50 [4]: 12.4 nM (active) and < 16 nM (active)
- AC50 [5]: < 0.023 µM (active)
- AC50 [6]: 144 nM (active) and 206 nM (active)
SMILES: O=C1Nc2ccc3ncsc3c2/C1=C/Nc1ccc(S(=O)(=O)Nc2ccccn2)cc1

SMILES: CCCN1CCC(Oc2cccc(C(=O)NCCc3ccccc3)c2)CC1
- IC50 [7]: 4.22 µM (active)
- IC50 [8]: 3.76 µM (active)
- IC50 [9]: 10 µM (active)

- Ki [10]: 2.51 µM (active)
- Ki [11]: 3.16 µM (active)
- Ki [12]: 3.98 µM (active)
- Ki [13]: 1.26 µM (active)
- Ki [14]: 2 µM (active)
- Ki [15]: 6.31 µM (active)
- Ki [16]: 5.01 µM (active)
SMILES: c1cncc(Nc2ncc(-c3ccncn3)c(-c3ccco3)n2)c1
